Literature values as cited in patent US11123091B2, “Device and methods for treating paranasal sinus conditions” (Intersect ENT, Inc., priority 2005, dated 2021).

System: cultured human airway epithelial cells
Conditions: for drug concentration at which dose response curves begin: beginning as low as; for EC50: read-out: EC50 levels of transcriptional response

SMILES	drug concentration at which dose response curves begin	EC50
CCC(=O)O[C@]1(C(=O)SCF)[C@H](C)C[C@H]2[C@@H]3C[C@H](F)C4=CC(=O)C=C[C@]4(C)[C@@]3(F)[C@@H](O)C[C@@]21C [fluticasone propionate]	10^−12 M	100 pM
C[C@@H]1C[C@H]2[C@@H]3CCC4=CC(=O)C=C[C@]4(C)[C@@]3(Cl)[C@@H](O)C[C@]2(C)[C@@]1(OC(=O)c1ccco1)C(=O)CCl [mometasone furoate]	10^−12 M	100 pM
